Data: ChEMBL document CHEMBL1147224, “Resveratrol and two monomethylated stilbenes from Israeli Rumex bucephalophorus and their antioxidant potential” (J Nat Prod, 2003)

Assay: ABTS radical scavenging activity assessed as trolox equivalent antioxidant capacity after 10 mins; call rule not given here
Assay type: physicochemical

| SMILES | Activity |
| --- | --- |
| COc1cc(O)cc(/C=C/c2ccc(O)cc2)c1 | Active |
| COc1ccc(/C=C/c2cc(O)cc(O)c2)cc1 [RESVERATROL 4'-METHYL ETHER] | Active |
| Oc1ccc(/C=C/c2cc(O)cc(O)c2)cc1 [RESVERATROL] | 2.74 |
